The results in this text go back to ChEMBL document CHEMBL1201862, “PubChem BioAssay data set” (2004).

Among the test systems are RPMI-8226; HL-60; SNB-19; NCI-H23; HT-29; UO-31; MDA-N; SF-295; DU-145; HCT-15; CCRF-CEM; SF-268; SW-620; SN12C; 786-0; HOP-92; HOP-62; OVCAR-3; MDA-MB-231; NCI/ADR-RES.
Assay in all cases: growth of human tumour cells (NCI), 48 h

SMILES strings stand for the structures.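 Step 1: Grow cells in 96-well plates. Step 2: Expose to compound for 48 hours at 5 concentrations. Step 3: Interpolate endpoints linearly; if unreached, use highest concentration. GI50 = concentration required for 50% inhibition of growth.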 Activity calls are given as the source filed them. No stated cut-off is given here; in the data, active = GI50 up to about 1.1 µM and inactive = higher.

On to `O=[N+]([O-])c1cccc2nc3ccccc3c(NCCCNc3c4ccccc4nc4cccc([N+](=O)[O-])c34)c12`, for which the GI50 was < 0.01 µM (active) in the test with RPMI-8226; 0.12 µM (active) in the test with HL-60; 0.0137 µM (active) in the test with SNB-19; 0.0182 µM (active) in the test with NCI-H23; < 0.01 µM (active) with HT-29; 0.0472 µM (active) with UO-31. Besides, the GI50 was 0.0123 µM (active) in the test on MDA-N; 0.037 µM (active) in the test with SF-295; < 0.0164 µM (active) in the test with DU-145; below 0.0138 µM with HCT-15; 0.0251 µM (active) with CCRF-CEM; < 0.01 µM (active) in the test on SF-268. For the same compound, the GI50 in the test with SW-620 was < 0.01 µM (active); in the test on SN12C, < 0.0169 µM (active); in the test with 786-0, 0.0146 µM (active); in the test with HOP-92, < 0.01 µM (active); in the test with HOP-62 it was < 0.0156 µM (active); in the test on OVCAR-3, < 0.0258 µM (active). Besides, the GI50 in the test with MDA-MB-231 was < 0.0122 µM (active); with NCI/ADR-RES, 0.249 µM (active).
Regarding `Cc1cn(CC2=NCC(O)CN2)c(=O)[nH]c1=O` (stereo not given), the GI50 in the test with RPMI-8226, in the test on HL-60, in the test on SNB-19, in the test on NCI-H23, in the test with HT-29 and in the test with UO-31 was > 100 µM (inactive) in each case. Besides, the GI50 in the test with MDA-N was > 100 µM (inactive); with SF-295, > 100 µM (inactive); in the test with DU-145 it was > 100 µM (inactive); in the test with HCT-15 it was above 100 µM; in the test with CCRF-CEM it was > 100 µM (inactive); in the test on SF-268, > 100 µM (inactive). The GI50 with SW-620, in the test on SN12C, in the test with 786-0, in the test on HOP-92, in the test on HOP-62 and with OVCAR-3 was > 100 µM (inactive) each time. Besides, the GI50 with MDA-MB-231 and in the test with NCI/ADR-RES was > 100 µM (inactive) throughout.
On to `O=C(Nc1ccc(Cl)cc1)c1cc(S(=O)(=O)Nc2nc3cccnc3[nH]2)c(SSc2cc(Cl)c(C(=O)Nc3ccc(Cl)cc3)cc2S(=O)(=O)Nc2nc3cccnc3[nH]2)cc1Cl`, for which the GI50 with RPMI-8226, in the test with HL-60, with SNB-19, in the test on NCI-H23, with HT-29 and with UO-31 was > 100 µM (inactive) throughout. Further, the GI50 was > 100 µM (inactive) in the test on MDA-N; > 100 µM (inactive) in the test with SF-295; > 100 µM (inactive) in the test on DU-145; above 100 µM in the test on HCT-15; > 100 µM (inactive) in the test with CCRF-CEM; > 100 µM (inactive) in the test with SF-268. The GI50 in the test with SW-620, in the test on SN12C, with 786-0, in the test with HOP-92, in the test with HOP-62 and in the test on OVCAR-3 was > 100 µM (inactive) in each case. In addition, the GI50 with MDA-MB-231 and with NCI/ADR-RES was > 100 µM (inactive) in each case.
Take `COc1ccc(/N=N\c2c(N)nn3c(SC)c(C#N)c(N)nc23)cc1`: the GI50 in the test on RPMI-8226 is 2.92 µM (inactive); in the test on HL-60, 2.71 µM (inactive); with SNB-19 it was 16.9 µM (inactive); in the test with NCI-H23, 5.55 µM (inactive); in the test with HT-29, 9.75 µM (inactive); in the test with UO-31, 12.4 µM (inactive). Besides, the GI50 in the test on MDA-N was 13.6 µM (inactive); in the test on SF-295 it was 19.9 µM (inactive); in the test on DU-145 it was 5.52 µM (inactive); with HCT-15, 8.61 µM; in the test on CCRF-CEM, 2.02 µM (inactive); in the test on SF-268, 3.21 µM (inactive). The GI50 in the test on SW-620 is 4.6 µM (inactive); with SN12C, 5.27 µM (inactive); with 786-0, 3.67 µM (inactive); in the test with HOP-92 it was 9.4 µM (inactive); in the test with HOP-62, 22.3 µM (inactive); with OVCAR-3, 2.82 µM (inactive). Moreover, the GI50 in the test with MDA-MB-231 is 2.32 µM (inactive); with NCI/ADR-RES, 23.4 µM (inactive).
